Experiments:
Experiment in all cases: relative viability (nuclei count vs DMSO), 5 days (fraction); higher = more cells survive
LCLC-103H = test system: LCLC-103H
Outline: (§1)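 Nuclei were stained with Hoechst during a one-step fixation (final 0.05% Triton X-100, 1% formaldehyde, 1 ug/ml Hoechst) carried out 5 days after dosing, then counted on 4× images. The cells, lung cancer lines in 1536-well plates, had been dosed by pin tool the day after seeding with one drug alone or a fixed anchor-drug dose plus five library-drug doses (not always all listed) in √10 steps. Relative viability is the nuclei count in treated wells divided by that in vehicle wells, and each value is the median of duplicate plates.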

NCI-H647 = test system: NCI-H647
Outline: as §1

NCI-H322M = test system: NCI-H322M
Outline: as §1

BEN = test system: BEN
Outline: as §1

LCLC-97TM1 = test system: LCLC-97TM1
Outline: as §1

LXF-289 = test system: LXF-289
Outline: as §1

NCI-H1395 = test system: NCI-H1395
Outline: as §1

NCI-H1792 = test system: NCI-H1792
Outline: as §1

NCI-H1650 = test system: NCI-H1650
Outline: as §1

NCI-H2087 = test system: NCI-H2087
Outline: as §1

NCI-H1437 = test system: NCI-H1437
Outline: as §1

SMILES: CCN(CC)CCCCNc1ncc2cc(-c3cc(OC)cc(OC)c3)c(NC(=O)NC(C)(C)C)nc2n1 + Cc1nc(Nc2ncc(C(=O)Nc3c(C)cccc3Cl)s2)cc(N2CCN(CCO)CC2)n1 [Dasatinib] (partner 0.075 µM)
- relative viability (LCLC-103H; first compound 0.01 µM): 0.424
- relative viability (LCLC-103H; first compound 0.03162 µM): 0.623
- relative viability (LCLC-103H; first compound 0.1 µM): 0.596
- relative viability (LCLC-103H; first compound 0.3162 µM): 0.554
- relative viability (LCLC-103H; first compound 1 µM): 0.331
- relative viability (NCI-H647; first compound 0.01 µM): 0.189
- relative viability (NCI-H647; first compound 0.03162 µM): 0.174
- relative viability (NCI-H647; first compound 0.1 µM): 0.209
- relative viability (NCI-H647; first compound 0.3162 µM): 0.218
- relative viability (NCI-H647; first compound 1 µM): 0.0989
- relative viability (NCI-H322M; first compound 0.01 µM): 0.242
- relative viability (NCI-H322M; first compound 0.03162 µM): 0.246
- relative viability (NCI-H322M; first compound 0.1 µM): 0.244
- relative viability (NCI-H322M; first compound 0.3162 µM): 0.257
- relative viability (NCI-H322M; first compound 1 µM): 0.237
- relative viability (BEN; first compound 0.01 µM): 0.298
- relative viability (BEN; first compound 0.03162 µM): 0.282
- relative viability (BEN; first compound 0.1 µM): 0.359
- relative viability (BEN; first compound 0.3162 µM): 0.353
- relative viability (BEN; first compound 1 µM): 0.26
- relative viability (LCLC-97TM1; first compound 0.01 µM): 0.806
- relative viability (LCLC-97TM1; first compound 0.03162 µM): 0.877
- relative viability (LCLC-97TM1; first compound 0.1 µM): 0.93
- relative viability (LCLC-97TM1; first compound 0.3162 µM): 0.934
- relative viability (LCLC-97TM1; first compound 1 µM): 0.838
- relative viability (LXF-289; first compound 0.01 µM): 0.209
- relative viability (LXF-289; first compound 0.03162 µM): 0.249
- relative viability (LXF-289; first compound 0.1 µM): 0.266
- relative viability (LXF-289; first compound 0.3162 µM): 0.167
- relative viability (LXF-289; first compound 1 µM): 0.0987
- relative viability (NCI-H1395; first compound 0.01 µM): 0.421
- relative viability (NCI-H1395; first compound 0.03162 µM): 0.422
- relative viability (NCI-H1395; first compound 0.1 µM): 0.753
- relative viability (NCI-H1395; first compound 0.3162 µM): 0.386
- relative viability (NCI-H1395; first compound 1 µM): 0.411
- relative viability (NCI-H1792; first compound 0.01 µM): 0.734
- relative viability (NCI-H1792; first compound 0.03162 µM): 0.849
- relative viability (NCI-H1792; first compound 0.1 µM): 0.837
- relative viability (NCI-H1792; first compound 0.3162 µM): 0.671
- relative viability (NCI-H1792; first compound 1 µM): 0.475
- relative viability (NCI-H1650; first compound 0.01 µM): 0.319
- relative viability (NCI-H1650; first compound 0.03162 µM): 0.286
- relative viability (NCI-H1650; first compound 0.1 µM): 0.375
- relative viability (NCI-H1650; first compound 0.3162 µM): 0.21
- relative viability (NCI-H1650; first compound 1 µM): 0.191
- relative viability (NCI-H2087; first compound 0.01 µM): 0.993
- relative viability (NCI-H2087; first compound 0.03162 µM): 0.797
- relative viability (NCI-H2087; first compound 0.1 µM): 0.964
- relative viability (NCI-H2087; first compound 0.3162 µM): 0.961
- relative viability (NCI-H2087; first compound 1 µM): 0.888
- relative viability (NCI-H1437; first compound 0.01 µM): 0.366
- relative viability (NCI-H1437; first compound 0.03162 µM): 0.504
- relative viability (NCI-H1437; first compound 0.1 µM): 0.419
- relative viability (NCI-H1437; first compound 0.3162 µM): 0.447
- relative viability (NCI-H1437; first compound 1 µM): 0.335

— the supplement of paper PMC10307832
